Test results as given in patent US12065442B2, “Tropomyosin receptor kinase (TRK) degradation compounds and methods of use” (Cullgen (Shanghai), Inc., priority 2018, dated 2024).

test system: KM12 cells; test: Cell viability assay (CellTiter-Glo) in KM12 cells; type: cell-based; details: Homo sapiens, 72 h; Table 2; KM12 cell viability, CellTiter-Glo, 3 days; read-out: IC50

SMILES | IC50
O=C1CCC(N2C(=O)c3cccc(NCCOCCOCCC(=O)N4CCN(c5ccc(C(=O)Nc6n[nH]c7ccc(Cc8cc(F)cc(F)c8)cc67)c(NC6CCOCC6)c5)CC4)c3C2=O)C(=O)N1 (stereo not shown) [CPD-032, N-(5-(3,5-Difluorobenzyl)-1H-indazol-3-yl)-4-(4-(3-(2-(2-((2-(2,6-dioxopiperidin-3-yl)-1,3-dioxoisoindolin-4-yl)amino)ethoxy)ethoxy)propanoyl)piperazin-1-yl)-2-((tetrahydro-2H-pyran-4-yl)amino)benzamide] | 5.4 nM
Cc1ncsc1-c1ccc(CNC(=O)[C@@H]2C[C@@H](O)CN2C(=O)[C@@H](NC(=O)CCCCC(=O)N2CCN(c3cccc(-c4cnc5ccc(N6CCC[C@@H]6c6cccc(F)c6)nn45)n3)CC2)C(C)(C)C)cc1 [CPD-001, (2S,4R)-1-((S)-2-(6-(4-(6-(6-((R)-2-(3-Fluorophenyl)pyrrolidin-1-yl)imidazo[1,2-b]pyridazin-3-yl)pyridin-2-yl)piperazin-1-yl)-6-oxohexanamido)-3,3-dimethylbutanoyl)-4-hydroxy-N-(4-(4-methylthiazol-5-yl)benzyl)pyrrolidine-2-carboxamide] | > 1000 nM
O=C1CCC(N2C(=O)c3cccc(NCCOCCOCCOCCOCCOCCC(=O)N4CCN(c5cccc(-c6cnc7ccc(N8CCC[C@@H]8c8cccc(F)c8)nn67)n5)CC4)c3C2=O)C(=O)N1 (stereo partly drawn) [CPD-025, 2-(2,6-Dioxopiperidin-3-yl)-4-((18-(4-(6-(6-((R)-2-(3-fluorophenyl)pyrrolidin-1-yl)imidazo[1,2-b]pyridazin-3-yl)pyridin-2-yl)piperazin-1-yl)-18-oxo-3,6,9,12,15-pentaoxaoctadecyl)amino)isoindoline-1,3-dione] | 16.7 nM
Cc1ncsc1-c1ccc(CNC(=O)[C@@H]2C[C@@H](O)CN2C(=O)[C@@H](NC(=O)CCOCCC(=O)N2CCN(c3ccc(C(=O)Nc4n[nH]c5ccc(Cc6cc(F)cc(F)c6)cc45)c(NC4CCOCC4)c3)CC2)C(C)(C)C)cc1 [CPD-048, (2S,4R)-1-((S)-2-(3-(3-(4-(4-((5-(3,5-Difluorobenzyl)-1H-indazol-3-yl)carbamoyl)-3-((tetrahydro-2H-pyran-4-yl)amino)phenyl)piperazin-1-yl)-3-oxopropoxy)propanamido)-3,3-dimethylbutanoyl)-4-hydroxy-N-(4-(4-methylthiazol-5-yl)benzyl)pyrrolidine-2-carboxamide] | > 1000 nM
O=C1CCC(N2C(=O)c3cccc(NCCOCCOCCOCCOCCC(=O)N4CCN(c5cccc(-c6cnc7ccc(N8CCC[C@@H]8c8cccc(F)c8)nn67)n5)CC4)c3C2=O)C(=O)N1 (stereo partly drawn) [CPD-021, 2-(2,6-Dioxopiperidin-3-yl)-4-((15-(4-(6-(6-((R)-2-(3-fluorophenyl)pyrrolidin-1-yl)imidazo[1,2-b]pyridazin-3-yl)pyridin-2-yl)piperazin-1-yl)-15-oxo-3,6,9,12-tetraoxapentadecyl)amino)isoindoline-1,3-dione] | 27.4 nM
O=C(CN1CCN(c2cccc(-c3cnc4ccc(N5CCC[C@@H]5c5cccc(F)c5)nn34)n2)CC1)NCCOCCOCCOCCNc1cccc2c1C(=O)N(C1CCC(=O)NC1=O)C2=O (stereo partly drawn) [CPD-059, N-(2-(2-(2-(2-((2-(2,6-dioxopiperidin-3-yl)-1,3-dioxoisoindolin-4-yl)amino)ethoxy)ethoxy)-ethoxy)ethyl)-2-(4-(6-(6-((R)-2-(3-fluorophenyl)pyrrolidin-1-yl)imidazo[1,2-b]pyridazin-3-yl)pyridin-2-yl)piperazin-1-yl)acetamide] | 6 nM
O=C1CCC(N2C(=O)c3cccc(NCC(=O)N4CCN(c5cccc(-c6cnc7ccc(N8CCC[C@@H]8c8cccc(F)c8)nn67)n5)CC4)c3C2=O)C(=O)N1 (stereo partly drawn) [CPD-023, 2-(2,6-Dioxopiperidin-3-yl)-4-((2-(4-(6-(6-((R)-2-(3-fluorophenyl)pyrrolidin-1-yl)imidazo[1,2-b]pyridazin-3-yl)pyridin-2-yl)piperazin-1-yl)-2-oxoethyl)amino)isoindoline-1,3-dione] | 14.9 nM

same assay, conditions: Homo sapiens, 72 h; Table 3; KM12 cell viability, CellTiter-Glo, 3 days; read-out: IC50

SMILES | IC50
O=C(CN1CCN(c2cccc(-c3cnc4ccc(N5CCC[C@@H]5c5cccc(F)c5)nn34)n2)CC1)NCCOCCOCCOCCOCCOCCNc1ccc2c(c1)C(=O)N(C1CCC(=O)NC1=O)C2=O (stereo partly drawn) [TR-132, N-(17-((2-(2,6-dioxopiperidin-3-yl)-1,3-dioxoisoindolin-5-yl)amino)-3,6,9,12,15-pentaoxaheptadecyl)-2-(4-(6-(6-((R)-2-(3-fluorophenyl)pyrrolidin-1-yl)imidazo[1,2-b]pyridazin-3-yl)pyridin-2-yl)piperazin-1-yl)acetamide] | 4.4 nM
O=C1CCC(N2C(=O)c3ccc(NCCOCCOCCC(=O)N4CCN(c5cccc(-c6cnc7ccc(N8CCC[C@@H]8c8cccc(F)c8)nn67)n5)CC4)cc3C2=O)C(=O)N1 (stereo partly drawn) [TR-113, 2-(2,6-Dioxopiperidin-3-yl)-5-((2-(2-(3-(4-(6-(6-((R)-2-(3-fluorophenyl)pyrrolidin-1-yl)imidazo[1,2-b]pyridazin-3-yl)pyridin-2-yl)piperazin-1-yl)-3-oxopropoxy)ethoxy)ethyl)amino)isoindoline-1,3-dione] | 1.3 nM
O=C1CCC(N2C(=O)c3ccc(NCCC4CCN(c5cccc(-c6cnc7ccc(N8CCC[C@@H]8c8cccc(F)c8)nn67)n5)CC4)cc3C2=O)C(=O)N1 (stereo partly drawn) [TR-180, 2-(2,6-Dioxopiperidin-3-yl)-5-((2-(1-(6-(6-((R)-2-(3-fluorophenyl)pyrrolidin-1-yl)imidazo[1,2-b]pyridazin-3-yl)pyridin-2-yl)piperidin-4-yl)ethyl)amino)isoindoline-1,3-dione] | 33.8 nM
O=C1CCC(N2Cc3cc(OCCN4CCN(c5cccc(-c6cnc7ccc(N8CCC[C@@H]8c8cccc(F)c8)nn67)n5)CC4)ccc3C2=O)C(=O)N1 (stereo partly drawn) [TR-200, 3-(5-(2-(4-(6-(6-((R)-2-(3-fluorophenyl)pyrrolidin-1-yl)imidazo[1,2-b]pyridazin-3-yl)pyridin-2-yl)piperazin-1-yl)ethoxy)-1-oxoisoindolin-2-yl)piperidine-2,6-dione] | 101 nM
O=C(CN1CCN(c2cccc(-c3cnc4ccc(N5CCC[C@@H]5c5cccc(F)c5)nn34)n2)CC1)NCCOCCOCCNc1ccc2c(c1)C(=O)N(C1CCC(=O)NC1=O)C2=O (stereo partly drawn) [TR-134, N-(2-(2-(2-((2-(2,6-dioxopiperidin-3-yl)-1,3-dioxoisoindolin-5-yl)amino)ethoxy)ethoxy)ethyl)-2-(4-(6-(6-((R)-2-(3-fluorophenyl)pyrrolidin-1-yl)imidazo[1,2-b]pyridazin-3-yl)pyridin-2-yl)piperazin-1-yl)acetamide] | 5.6 nM
O=C(CN1CCN(c2ccc(C(=O)Nc3n[nH]c4ccc(Cc5cc(F)cc(F)c5)cc34)c(NC3CCOCC3)c2)CC1)NCCOCCOCCOCCOCCNc1cccc2c1C(=O)N(C1CCC(=O)NC1=O)C2=O (stereo not shown) [TR-150, N-(5-(3,5-Difluorobenzyl)-1H-indazol-3-yl)-4-(4-(17-((2-(2,6-dioxopiperidin-3-yl)-1,3-dioxoisoindolin-4-yl)amino)-2-oxo-6,9,12,15-tetraoxa-3-azaheptadecyl)piperazin-1-yl)-2-((tetrahydro-2H-pyran-4-yl)amino)benzamide] | 16.6 nM
O=C1CCC(N2C(=O)c3ccc(NCCCCCCC(=O)N4CCN(c5ccc(C(=O)Nc6n[nH]c7ccc(Cc8cc(F)cc(F)c8)cc67)c(NC6CCOCC6)c5)CC4)cc3C2=O)C(=O)N1 (stereo not shown) [TR-139, N-(5-(3,5-Difluorobenzyl)-1H-indazol-3-yl)-4-(4-(7-((2-(2,6-dioxopiperidin-3-yl)-1,3-dioxoisoindolin-5-yl)amino)heptanoyl)piperazin-1-yl)-2-((tetrahydro-2H-pyran-4-yl)amino)benzamide] | 27.1 nM
O=C(CN1CCN(c2cccc(-c3cnc4ccc(N5CCC[C@@H]5c5cccc(F)c5)nn34)n2)CC1)NCCNc1ccc2c(c1)C(=O)N(C1CCC(=O)NC1=O)C2=O (stereo partly drawn) [TR-130, N-(2-((2-(2,6-dioxopiperidin-3-yl)-1,3-dioxoisoindolin-5-yl)amino)ethyl)-2-(4-(6-(6-((R)-2-(3-fluorophenyl)pyrrolidin-1-yl)imidazo[1,2-b]pyridazin-3-yl)pyridin-2-yl)piperazin-1-yl)acetamide] | 0.9 nM
O=C1CCC(N2C(=O)c3ccc(NCCCCCCCC(=O)N4CCN(c5cccc(-c6cnc7ccc(N8CCC[C@@H]8c8cccc(F)c8)nn67)n5)CC4)cc3C2=O)C(=O)N1 (stereo partly drawn) [TR-118, 2-(2,6-Dioxopiperidin-3-yl)-5-((8-(4-(6-(6-((R)-2-(3-fluorophenyl)pyrrolidin-1-yl)imidazo[1,2-b]pyridazin-3-yl)pyridin-2-yl)piperazin-1-yl)-8-oxooctyl)amino)isoindoline-1,3-dione] | 6.3 nM

same assay, conditions: Homo sapiens, 72 h; Table 4; KM12 cell viability, CellTiter-Glo, 3 days; read-out: IC50

SMILES | IC50
O=C1CCC(N2C[C@H](c3cccc(C#CCN4CCN(c5cccc(-c6cnc7ccc(N8CCC[C@@H]8c8cccc(F)c8)nn67)n5)CC4)c3)OC2=O)C(=O)N1 (stereo partly drawn) [TR-223, 3-((S)-5-(3-(3-(4-(6-(6-((R)-2-(3-Fluorophenyl)pyrrolidin-1-yl)imidazo[1,2-b]pyridazin-3-yl)pyridin-2-yl)piperazin-1-yl)prop-1-yn-1-yl)phenyl)-2-oxooxazolidin-3-yl)piperidine-2,6-dione] | 11.3 nM
O=C1CCC(N2C[C@H](c3ccc(C#CCN4CCN(c5cccc(-c6cnc7ccc(N8CCC[C@@H]8c8cccc(F)c8)nn67)n5)CC4)cc3)OC2=O)C(=O)N1 (stereo partly drawn) [TR-224, 3-((S)-5-(4-(3-(4-(6-(6-((R)-2-(3-Fluorophenyl)pyrrolidin-1-yl)imidazo[1,2-b]pyridazin-3-yl)pyridin-2-yl)piperazin-1-yl)prop-1-yn-1-yl)phenyl)-2-oxooxazolidin-3-yl)piperidine-2,6-dione] | 9.9 nM

same assay, conditions: Homo sapiens, KM12, 72 h

SMILES | IC50
Cn1c(=O)n(C2CCC(=O)NC2=O)c2cccc(C#CCN3CCN(c4cccc(-c5cnc6ccc(N7CCC[C@@H]7c7cccc(F)c7)nn56)n4)CC3)c21 (stereo partly drawn) [TR-238, 3-(4-(3-(4-(6-(6-((R)-2-(3-fluorophenyl)pyrrolidin-1-yl)imidazo[1,2-b]pyridazin-3-yl)pyridin-2-yl)piperazin-1-yl)prop-1-yn-1-yl)-3-methyl-2-oxo-2,3-dihydro-1H-benzo[d]imidazol-1-yl)piperidine-2,6-dione] | 16 nM
